# Read-outs that look alike come from different tables or passages of the source. Bridge positions count the residues as written; N and C are the ends. Ends that are not written are not given here. Peptide text beside a SMILES is read from it. PEO24 = monodispersed, 1.2 kDa
# Biological target: T1, NPR-B (Mus musculus, UniProt Q6VVW5)
# T1 construct: Murine NIH3T3 cells express endogenously the CNP signaling receptor, NPR-B; endogenous in cells; host or cells: NIH3T3 (murine fibroblasts)
# T1 sequence (Q6VVW5 17-1047): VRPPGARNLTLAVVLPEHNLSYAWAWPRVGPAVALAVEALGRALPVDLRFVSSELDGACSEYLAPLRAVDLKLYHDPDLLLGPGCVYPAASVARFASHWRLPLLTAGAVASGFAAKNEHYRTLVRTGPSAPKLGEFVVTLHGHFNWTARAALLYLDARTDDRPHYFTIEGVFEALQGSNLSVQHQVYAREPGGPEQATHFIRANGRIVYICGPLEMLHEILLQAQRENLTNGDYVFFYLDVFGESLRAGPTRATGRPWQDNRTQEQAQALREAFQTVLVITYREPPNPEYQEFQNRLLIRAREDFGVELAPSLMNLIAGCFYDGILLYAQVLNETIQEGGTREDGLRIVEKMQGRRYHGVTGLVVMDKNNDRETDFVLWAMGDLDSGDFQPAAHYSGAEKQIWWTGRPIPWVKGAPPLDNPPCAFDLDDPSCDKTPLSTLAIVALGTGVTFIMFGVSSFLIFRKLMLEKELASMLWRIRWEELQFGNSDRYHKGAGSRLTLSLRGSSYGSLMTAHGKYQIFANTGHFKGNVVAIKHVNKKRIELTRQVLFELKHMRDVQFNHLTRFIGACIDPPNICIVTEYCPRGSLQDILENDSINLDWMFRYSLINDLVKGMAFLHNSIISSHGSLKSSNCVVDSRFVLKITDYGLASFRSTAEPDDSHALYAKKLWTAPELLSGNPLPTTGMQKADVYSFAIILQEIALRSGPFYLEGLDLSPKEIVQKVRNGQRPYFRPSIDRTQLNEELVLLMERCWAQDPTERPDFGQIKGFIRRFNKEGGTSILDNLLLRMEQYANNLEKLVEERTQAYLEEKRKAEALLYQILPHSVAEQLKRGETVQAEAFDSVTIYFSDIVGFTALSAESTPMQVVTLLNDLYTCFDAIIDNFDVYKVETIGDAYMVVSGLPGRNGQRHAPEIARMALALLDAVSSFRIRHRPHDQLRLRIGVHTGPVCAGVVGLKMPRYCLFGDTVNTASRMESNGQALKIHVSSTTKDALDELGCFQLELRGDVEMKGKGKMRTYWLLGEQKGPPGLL
# Test: Stimulation of cGMP production in NIH3T3 cells
# Type: cell-based, Murine
# Conditions: for cGMP response relative to 1 uM CNP22 (%) at 0.01 µM: read-out: cGMP Response rel. to 1 uM CNP22, 10 nM; for cGMP response relative to 1 uM CNP22 (%) at 1 µM: read-out: cGMP Response rel. to 1 uM CNP22, 1 uM
# [1] = NIH3T3 cells, 10 nM natriuretic peptide, normalized to cell number and cGMP production with 1 uM wtCNP22
# [2] = NIH3T3 cells, 1 uM natriuretic peptide, normalized to cell number and cGMP production with 1 uM wtCNP22
Compound,cGMP response relative to 1 uM CNP22 (%) at 0.01 µM [1],cGMP response relative to 1 uM CNP22 (%) at 1 µM [2],"cGMP response relative to 1 uM CNP22 (%) at 0.01 µM (NIH3T3, […])","cGMP response relative to 1 uM CNP22 (%) at 1 µM (NIH3T3, […])",further results
CC[C@H](C)[C@@H]1NC(=O)[C@H](CCCNC(=N)N)NC(=O)[C@H](CC(=O)O)NC(=O)[C@H](CC(C)C)NC(=O)[C@H](CCCCN)NC(=O)[C@H](CC(C)C)NC(=O)CNC(=O)[C@H](Cc2ccccc2)NC(=O)[C@@H](NC(=O)CNC(=O)[C@H](CCCNC(=N)N)NC(=O)[C@H](CO)NC(=O)[C@H](CC(C)C)NC(=O)CN)CSSC[C@@H](C(=O)O)NC(=O)CNC(=O)[C@H](CC(C)C)NC(=O)CNC(=O)[C@H](CO)NC(=O)[C@H](CCSC)NC(=O)[C@H](CO)NC(=O)[C@H](CCCNC(=N)N)NC1=O [AE] (H-GLSRGCFGLKLDRIRSMSGLGC-OH; disulfide 6-22 (inferred); N-terminus and C-terminus assumed),,,0.3%,0.3%,
CC[C@H](C)[C@@H]1NC(=O)[C@H](CCCNC(=N)N)NC(=O)[C@H](CC(=O)O)NC(=O)[C@H](CC(C)C)NC(=O)[C@H](CCCCN)NC(=O)[C@H](CC(C)C)NC(=O)CNC(=O)[C@H](Cc2ccccc2)NC(=O)[C@@H](NC(=O)CNC(=O)[C@H](CCCNC(=N)N)NC(=O)[C@H](CO)NC(=O)[C@H](CC(C)C)NC(=O)CN)CSSC[C@@H](C(=O)O)NC(=O)CNC(=O)[C@H](CC(C)C)NC(=O)CNC(=O)[C@H](CO)NC(=O)[C@H](C(C)C)NC(=O)[C@H](CO)NC(=O)CNC1=O [AG] (H-GLSRGCFGLKLDRIGSVSGLGC-OH; disulfide 6-22 (inferred); N-terminus and C-terminus assumed),,,10%,65%,
CC[C@H](C)[C@@H]1NC(=O)[C@H](CCCNC(=N)N)NC(=O)[C@H](CC(=O)O)NC(=O)[C@H](CC(C)C)NC(=O)[C@H](CCCCN)NC(=O)[C@H](CC(C)C)NC(=O)[C@H](C(C)C)NC(=O)[C@H](Cc2ccccc2)NC(=O)[C@@H](NC(=O)CNC(=O)[C@H](CCCNC(=N)N)NC(=O)[C@H](CO)NC(=O)[C@H](CC(C)C)NC(=O)CN)CSSC[C@@H](C(=O)O)NC(=O)CNC(=O)[C@H](CC(C)C)NC(=O)CNC(=O)[C@H](CO)NC(=O)[C@H](CCSC)NC(=O)[C@H](CO)NC(=O)CNC1=O [AA] (H-GLSRGCFVLKLDRIGSMSGLGC-OH; disulfide 6-22 (inferred); N-terminus and C-terminus assumed),3%,25%,,,
CC[C@H](C)[C@@H]1NC(=O)[C@H](CCCNC(=N)N)NC(=O)[C@H](CC(=O)O)NC(=O)[C@H](CC(C)C)NC(=O)[C@H](CCCCN)NC(=O)[C@H](CC(C)C)NC(=O)CNC(=O)[C@H](Cc2ccccc2)NC(=O)[C@@H](NC(=O)CNC(=O)[C@H](CCCCN)NC(=O)[C@H](CO)NC(=O)[C@H](CC(C)C)NC(=O)CNC(=O)[C@H](CCC(N)=O)NC(=O)[C@H](CCC(N)=O)NC(=O)[C@H](CC(N)=O)NC(=O)[C@H](C)NC(=O)CNC(=O)[C@H](Cc2c[nH]cn2)NC(=O)[C@@H](NC(=O)[C@H](CC(=O)O)NC(=O)[C@H](Cc2c[nH]cn2)NC(=O)[C@H](CCC(=O)O)NC(=O)[C@H](Cc2c[nH]cn2)NC(=O)[C@@H]2CCCN2C(=O)[C@H](Cc2c[nH]cn2)NC(=O)[C@H](Cc2c[nH]cn2)NC(=O)[C@H](C)NC(=O)CN)[C@@H](C)O)CSSC[C@@H](C(=O)O)NC(=O)CNC(=O)[C@H](CC(C)C)NC(=O)CNC(=O)[C@H](CO)NC(=O)[C@H](CCSC)NC(=O)[C@H](CO)NC(=O)CNC1=O [CR] (H-GAHHPHEHDTHGANQQGLSKGCFGLKLDRIGSMSGLGC-OH; disulfide 22-38 (inferred); N-terminus and C-terminus assumed),,,14 ± 5%,77 ± 12%,
"PEO24-CNP22, K4R: CNP22, K4R conjugated at the N-terminus to PEO24 (PEO24-GLSRGCFGLKLDRIGSMSGLGC; disulfide 6-22 (inferred); UniProt P23582 105-126, looked up, variant K4R)",,,,,"cGMP Response rel. to 1 uM CNP22, 10 nM [1]: 15; cGMP Response rel. to 1 uM CNP22, 1 uM [2]: 56"
CC[C@H](C)[C@@H]1NC(=O)[C@H](CCCNC(=N)N)NC(=O)[C@H](CC(=O)O)NC(=O)[C@H](CC(C)C)NC(=O)[C@H](CCCCN)NC(=O)[C@H](CC(C)C)NC(=O)CNC(=O)[C@@H](Cc2ccccc2)NC(=O)[C@@H](NC(=O)CNC(=O)[C@H](CCCCN)NC(=O)[C@H](CO)NC(=O)[C@H](CC(C)C)NC(=O)CN)CSSC[C@@H](C(=O)O)NC(=O)CNC(=O)[C@H](CC(C)C)NC(=O)CNC(=O)[C@H](CO)NC(=O)[C@H](CCSC)NC(=O)[C@H](CO)NC(=O)CNC1=O [E],,,2%,6%,
"PEO24-R-CNP22, K4R: R-CNP22, K4R conjugated at the N-terminus to PEO24 (PEO24-RGLSRGCFGLKLDRIGSMSGLGC; disulfide 7-23 (inferred))",,,,,"cGMP Response rel. to 1 uM CNP22, 10 nM [1]: 15 ± 2; cGMP Response rel. to 1 uM CNP22, 1 uM [2]: 75 ± 12"

# Now from value to compound, other results behind:
cGMP response relative to 1 uM CNP22 (%) at 0.01 µM [1],cGMP response relative to 1 uM CNP22 (%) at 1 µM [2],Compound,"cGMP response relative to 1 uM CNP22 (%) at 0.01 µM (NIH3T3, […])","cGMP response relative to 1 uM CNP22 (%) at 1 µM (NIH3T3, […])",further results
9%,57%,CC[C@H](C)[C@@H]1NC(=O)[C@H](CCCNC(=N)N)NC(=O)[C@H](CC(=O)O)NC(=O)[C@H](CC(C)C)NC(=O)[C@H](CCCCN)NC(=O)[C@H](CC(C)C)NC(=O)CNC(=O)[C@H](Cc2ccccc2)NC(=O)[C@@H](NC(=O)CNC(=O)[C@H](CCCCN)NC(=O)[C@H](CO)NC(=O)[C@H](CC(C)C)NC(=O)CNC(=O)[C@H](CCC(N)=O)NC(=O)[C@H](CCC(N)=O)NC(=O)[C@H](CC(N)=O)NC(=O)[C@H](C)NC(=O)CNC(=O)[C@H](CCCCN)NC(=O)[C@H](Cc2ccc(O)cc2)NC(=O)[C@H](CCCCN)NC(=O)[C@H](CCCNC(=N)N)NC(=O)[C@H](C)NC(=O)[C@H](CC(N)=O)NC(=O)[C@@H]2CCCN2C(=O)[C@H](Cc2c[nH]cn2)NC(=O)[C@H](CCC(=O)O)NC(=O)[C@H](CCC(N)=O)NC(=O)CN)CSSC[C@@H](C(=O)O)NC(=O)CNC(=O)[C@H](CC(C)C)NC(=O)CNC(=O)[C@H](CO)NC(=O)[C@H](CCSC)NC(=O)[C@H](CO)NC(=O)CNC1=O [CU] (H-GQEHPNARKYKGANQQGLSKGCFGLKLDRIGSMSGLGC-OH; disulfide 22-38 (inferred); N-terminus and C-terminus assumed),,,
9%,45%,CC[C@H](C)[C@@H]1NC(=O)[C@H](CCCNC(=N)N)NC(=O)[C@H](CC(=O)O)NC(=O)[C@H](CC(C)C)NC(=O)[C@H](CCC(N)=O)NC(=O)[C@H](CC(C)C)NC(=O)CNC(=O)[C@H](Cc2ccccc2)NC(=O)[C@@H](NC(=O)CNC(=O)[C@H](CCCNC(=N)N)NC(=O)[C@H](CO)NC(=O)[C@H](CC(C)C)NC(=O)CN)CSSC[C@@H](C(=O)O)NC(=O)CNC(=O)[C@H](CC(C)C)NC(=O)CNC(=O)[C@H](CO)NC(=O)[C@H](CCSC)NC(=O)[C@H](CO)NC(=O)CNC1=O [BG] (H-GLSRGCFGLQLDRIGSMSGLGC-OH; disulfide 6-22),,,
50 ± 1%,105 ± 12%,CC[C@H](C)[C@@H]1NC(=O)[C@H](CCCNC(=N)N)NC(=O)[C@H](CC(=O)O)NC(=O)[C@H](CC(C)C)NC(=O)[C@H](CCCCN)NC(=O)[C@H](CC(C)C)NC(=O)CNC(=O)[C@H](Cc2ccccc2)NC(=O)[C@@H](NC(=O)CNC(=O)[C@H](CCCNC(=N)N)NC(=O)[C@H](CO)NC(=O)[C@H](CC(C)C)NC(=O)CNC(=O)[C@H](CCCNC(=N)N)NC(=O)[C@@H]2CCCN2C(=O)[C@H](CC(N)=O)NC(=O)[C@H](C)NC(=O)CN)CSSC[C@@H](C(=O)O)NC(=O)CNC(=O)[C@H](CC(C)C)NC(=O)CNC(=O)[C@H](CO)NC(=O)[C@H](CCSC)NC(=O)[C@H](CO)NC(=O)CNC1=O [CI] (H-GANPRGLSRGCFGLKLDRIGSMSGLGC-OH; disulfide 11-27 (inferred); N-terminus and C-terminus assumed),,,

# Reference: patent US8377884B2, “Variants of C-type natriuretic peptides” (Biomarin Pharmaceutical Inc., priority 2007, dated 2013)
